Data from patent publication US12195427B2, “MASP-2 inhibitors and methods of use” (priority 2018, dated 2025).
Values belong to the compound of their own block, whether it stands above or below them.

Molecular target: MASP-2 CCP2-SP (Homo sapiens (Human), UniProt O00187)
Assay: MASP-2 co-crystallization, X-ray crystallography and structure analysis (H-bonds, van der Waals contacts);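 on Ligand-pharmacophore element distance, pharmacophore element C2: distance from averaged pharmacophore element to bound ligand; missing value means element absent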;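 on Ligand-pharmacophore element distance, pharmacophore element C3: distance from averaged pharmacophore element to bound ligand; missing value means element absent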;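 on Ligand-pharmacophore element distance, pharmacophore element C4: distance from averaged pharmacophore element to bound ligand; missing value means element absent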;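 on Ligand-pharmacophore element distance, pharmacophore element C5: distance from averaged pharmacophore element to bound ligand; missing value means element absent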
Set-up: van der Waals contact distance, MASP-2 HIS 483 atom CD2 / van der Waals contact distance, MASP-2 HIS 483 atom NE2 / van der Waals contact distance, SER 654 C to compound atom / van der Waals contact distance, SER 654 O to compound atom / van der Waals contact distance, TRP 655 C to compound atom / van der Waals contact distance, MASP-2 GLY 528 atom CA / van der Waals contact distance TRP 655 atom CZ3 / van der Waals contact distance TRP 655 atom N / van der Waals contact distance TRP 655 atom CE3 / van der Waals contact distance GLY 656 atom C / van der Waals contact distance GLY 656 atom CA / van der Waals contact distance GLY 656 atom O / van der Waals contact distance, MASP-2 TYR 607 atom CD1 / van der Waals contact distance, MASP-2 PRO 606 atom O / d(C3,CA1) / d(CA1,N1)2 / d(H4,O1) / d(H4,O2) / d(O1,O2) / d(CA1,O2) / d(CA6,O1) / d(CA6,O2) / d(CA1,C5) / d(O2,H3) / d(N2,C2) / d(CA5,N2) / d(N2,C4) / d(N2,C6) / d(N2,CA3) / d(N2,O3) / d(O4,H2): unit not given beside the values
In short: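 Contacts and H-bonds come from partially refined soaked-crystal structures of recombinant human CCP2-SP made in E. coli, solved by molecular replacement against 1Q3X fragments. Where several ligand poses appeared, only one was analysed; listed nonbonded contacts may include possible H-bond pairings.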

[1] = Table A5-1 pharmacophore: distance between elements, S2/S1 region
[2] = Table A5-2 pharmacophore distance, S3/S4 region
[3] = Table A7-1, between pharmacophore elements of the bound compound
[4] = Table A7-2, between pharmacophore elements of the bound compound

Sequence of MASP-2 CCP2-SP (O00187 445-686): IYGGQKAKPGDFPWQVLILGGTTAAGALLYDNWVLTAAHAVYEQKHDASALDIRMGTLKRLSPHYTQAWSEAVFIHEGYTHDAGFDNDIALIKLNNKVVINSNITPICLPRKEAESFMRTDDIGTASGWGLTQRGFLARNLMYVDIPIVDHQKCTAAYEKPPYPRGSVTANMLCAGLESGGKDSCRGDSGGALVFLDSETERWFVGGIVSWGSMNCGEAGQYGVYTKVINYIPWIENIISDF
Sequence of MASP-2 CCP2-SP (O00187 364-432 partner): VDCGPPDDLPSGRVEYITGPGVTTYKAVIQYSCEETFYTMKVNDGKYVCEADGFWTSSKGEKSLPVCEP

Structure (SMILES): C[C@H](NC(=O)[C@@H](CCc1ccccc1)NCCCc1ccc(O)cc1)C(=O)NCc1ccc(C(=N)N)cc1.Cl.Cl [1145_B]
Ligand-pharmacophore element distance, pharmacophore element C2 (Table A4-1): 0
Ligand-pharmacophore element distance, pharmacophore element C3 (Table A4-1): 0
Ligand-pharmacophore element distance, pharmacophore element C4 (Table A4-1): 0
Ligand-pharmacophore element distance, pharmacophore element C5 (Table A4-1): 0
Ligand-pharmacophore element distance, pharmacophore element C6 (Table A4-1): 0
Ligand-pharmacophore element distance, pharmacophore element C7 (Table A4-1): 0
Ligand-pharmacophore element distance, pharmacophore element CA1 (Table A4-1): 0.47
Ligand-pharmacophore element distance, pharmacophore element CA2 (Table A4-1): 0.41
Ligand-pharmacophore element distance, pharmacophore element CA3 (Table A4-1): 1.22
Ligand-pharmacophore element distance, pharmacophore element CA4 (Table A4-1): 0
Ligand-pharmacophore element distance, pharmacophore element CA5 (Table A4-1, element CA5): 0
Ligand-pharmacophore element distance, pharmacophore element CA6 (Table A4-1): 0
d(CA1,N1) [1]: 3.54
d(CA1,O1) [1]: 4.42
d(CA1,O2) [1]: 4.42
d(H4,O1) [1]: 4.89
d(H4,O2) [1]: 4.48
d(O1,O2) [1]: 3.28
d(N2,CA2) [2]: 5.91
d(N2,CA3) [2]: 5.59
d(N2,H1) [2]: 8.68
d(N2,O3) [2]: 7.97
d(O2,H3) [2]: 5.36
d(O2,N2) [2]: 2.77
a(CA1, O1, O2) (Table A6-1 pharmacophore angle): 111.73
a(O1, O2, H4) (Table A6-1 pharmacophore angle): 139.31
A(N1, CA1, O1) a) (Table A6-1 pharmacophore angle, all compounds with protonatable center N1 except Methyl-amino-pyridine): 162.28
a(O1, O2, H3) (Table A6-2 pharmacophore angle): 150.25
a(O1, O2, N2) (Table A6-2 pharmacophore angle): 136.24
a(O2, N2, CA2) (Table A6-2 pharmacophore angle): 153.28
a(O2, N2, CA3) (Table A6-2 pharmacophore angle): 161.48
a(O2, N2, H1) (Table A6-2 pharmacophore angle): 168.66
a(O2, N2, O3) (Table A6-2 pharmacophore angle): 168.41
Pharmacophore torsion angle a(H4, O1, O2, H3) [3]: 48.71
Pharmacophore torsion angle a(H4, O1, O2, N2) [3]: 124.15
Pharmacophore torsion angle a(N1, CA1, O2, H4) [3]: −128.41
Pharmacophore torsion angle a(O1, H4, O2, CA1) [3]: −59.90
Pharmacophore torsion angle a(O1, O2, N2, CA2) [4]: 140.87
Pharmacophore torsion angle a(O1, O2, N2, CA3) [4]: −15.65
Pharmacophore torsion angle a(O1, O2, N2, H1) [4]: −15.97
Pharmacophore torsion angle a(O1, O2, N2, O3) [4]: −10.98

H-bond distance to MASP-2 ASP 627 atom OD2 (Table A1 (H-Bonds), ASP 627 OD2): 2.91
H-bond distance to MASP-2 GLY 656 atom N (Table A1 (H-Bonds), GLY 656 N): 3.35
H-bond distance to MASP-2 SER 657 atom O (Table A1 (H-Bonds), SER 657 O): 2.85
van der Waals contact distance, MASP-2 PHE 529 atom CE1 (Table A2-3): 3.27
van der Waals contact distance, MASP-2 PHE 529 atom CE2 (Table A2-3): 3.73
van der Waals contact distance, MASP-2 PRO 606 atom C (Table A2-4): 3.89
van der Waals contact distance, MASP-2 PRO 606 atom O (Table A2-4): 3.73
van der Waals contact distance GLY 656 atom C (Table A2-13, MASP-2 GLY 656 C): 3.7
van der Waals contact distance TRP 655 atom O (Table A2-13, MASP-2 TRP 655 O): 3.25
van der Waals contact distance GLY 656 atom N (Table A2-14, MASP-2 GLY 656 N): 3.86
van der Waals contact distance SER 657 atom C (Table A2-14, MASP-2 SER 657 C, columns c12-c13 (inferred)): 3.73
Ligand-pharmacophore element distance, pharmacophore element C2 (Table A4-1): 0
Ligand-pharmacophore element distance, pharmacophore element C3 (Table A4-1): 0
Ligand-pharmacophore element distance, pharmacophore element C4 (Table A4-1): 0
Ligand-pharmacophore element distance, pharmacophore element C5 (Table A4-1): 0
Ligand-pharmacophore element distance, pharmacophore element C6 (Table A4-1): 0
Ligand-pharmacophore element distance, pharmacophore element C7 (Table A4-1): 0
Ligand-pharmacophore element distance, pharmacophore element CA1 (Table A4-1): 0.27
Ligand-pharmacophore element distance, pharmacophore element CA2 (Table A4-1): 0
Ligand-pharmacophore element distance, pharmacophore element CA3 (Table A4-1): 0
Ligand-pharmacophore element distance, pharmacophore element CA4 (Table A4-1): 0
Ligand-pharmacophore element distance, pharmacophore element CA6 (Table A4-1): 0
d(O2,H3) [2]: 3.99
Pharmacophore torsion angle a(H4, O1, O2, H3) [3]: 57.29
Pharmacophore torsion angle a(N1, CA1, O2, H4) [3]: −92.49
Pharmacophore protein distance to MET_658 (first MET_658 column) (Table A8-6, 6th residue column, nearest protein atom in cell to the left): 2.38
Pharmacophore protein distance to MET_658 (second MET_658 column) (Table A8-6, 9th residue column, nearest protein atom in cell to the left): 3.03
Pharmacophore protein distance to SER_611 (Table A8-6, nearest protein atom in cell to the left): 2.19
Structure (SMILES): C[C@H](NC(=O)[C@H]1C[C@@H](c2ccccc2)CN1)C(=O)NCc1ccc(C(=N)N)cc1 [compound 1037]
